Like-named read-outs stand apart in the source and are kept apart here.
What was measured:
[1] = target: EGFR del19/T790M/C797S (Homo sapiens, UniProt P00533, C797S/DEL746-750/T790M); test: Biochemical EGFR kinase assay (Lance Ultra TR-FRET), triple mutant del19/T790M/C797S
Protocol: (§1) Biochemical EGFR kinase assays were conducted using Lance Ultra time-resolved fluorescence resonance energy transfer (TR-FRET) technology from Perkin-Elmer. Compounds of the invention were initially diluted to 20 mM in 100% DMSO for storage and made into kinase buffer solution to create a compound concentration ranging from 0.003 μM and 10 μM.
(§2) Each kinase reactions were incubated at room temperature for 1 hour and then stopped by the addition of 4 μL of stop solution (10 mM EDTA). The specific Europium-labeled-anti-phosphopeptide antibody (PerkinElmer, AD0069) diluted in LANCE detection buffer was then added to a final concentration of 2 nM. After 60 minutes incubation at room temperature the LANCE signal was measured on an EnVision Multilabel Reader (Perkin-Elmer). Excitation wavelength was set at 320 nm and emission monitored at 615 nm (donor) and 665 nm (acceptor). The IC50 values were determined using GraphPad prism software (GraphPad Software, Inc., San Diego, CA, USA).

[2] = target: EGFR del19/C797S (Homo sapiens, UniProt P00533, C797S/DEL746-750); test: Biochemical EGFR kinase assay (Lance Ultra TR-FRET), double mutant del19/C797S; conditions: Km ATP; read-out: IC50 del19/C797S (nM) Km ATP
Protocol: as §1, §2

[3] = target: EGFR L858R/T790M/C797S (Homo sapiens, UniProt P00533, C797S/L858R/T790M); test: Biochemical EGFR kinase assay (Lance Ultra TR-FRET), triple mutant L858R/T790M/C797S
Protocol: as §1, §2

[4] = target: EGFR L858R/C797S (Homo sapiens, UniProt P00533, C797S/L858R); test: Biochemical EGFR kinase assay (Lance Ultra TR-FRET), double mutant L858R/C797S
Protocol: as §1, §2

[5] = target: EGFR wildtype (WT) (Homo sapiens, UniProt P00533); test: Biochemical EGFR kinase assay (Lance Ultra TR-FRET), wildtype
Protocol: as §1, §2

[6] = Km ATP, read-out: IC50 del19/T790M/C797S (nM) Km ATP
[7] = Km ATP, read-out: IC50 L858R/T790M/C797S (nM) Km ATP
[8] = Km ATP, read-out: IC50 L858R/C797S (nM) Km ATP
[9] = Km ATP, read-out: IC50 WT (nM) Km ATP
[10] = IC50 del19/T790M/C797S (nM) 100 μM ATP, 100 μM ATP
[11] = IC50 L858R/T790M/C797S (nM) 100 μM ATP, 100 μM ATP
[12] = IC50 L858R/C797S (nM) 100 μM ATP, 100 μM ATP
[13] = IC50 WT (nM) 100 μM ATP, 100 μM ATP

EGFR L858R/T790M/C797S, sequence (P00533 25-1210 T790M/C797S/L858R): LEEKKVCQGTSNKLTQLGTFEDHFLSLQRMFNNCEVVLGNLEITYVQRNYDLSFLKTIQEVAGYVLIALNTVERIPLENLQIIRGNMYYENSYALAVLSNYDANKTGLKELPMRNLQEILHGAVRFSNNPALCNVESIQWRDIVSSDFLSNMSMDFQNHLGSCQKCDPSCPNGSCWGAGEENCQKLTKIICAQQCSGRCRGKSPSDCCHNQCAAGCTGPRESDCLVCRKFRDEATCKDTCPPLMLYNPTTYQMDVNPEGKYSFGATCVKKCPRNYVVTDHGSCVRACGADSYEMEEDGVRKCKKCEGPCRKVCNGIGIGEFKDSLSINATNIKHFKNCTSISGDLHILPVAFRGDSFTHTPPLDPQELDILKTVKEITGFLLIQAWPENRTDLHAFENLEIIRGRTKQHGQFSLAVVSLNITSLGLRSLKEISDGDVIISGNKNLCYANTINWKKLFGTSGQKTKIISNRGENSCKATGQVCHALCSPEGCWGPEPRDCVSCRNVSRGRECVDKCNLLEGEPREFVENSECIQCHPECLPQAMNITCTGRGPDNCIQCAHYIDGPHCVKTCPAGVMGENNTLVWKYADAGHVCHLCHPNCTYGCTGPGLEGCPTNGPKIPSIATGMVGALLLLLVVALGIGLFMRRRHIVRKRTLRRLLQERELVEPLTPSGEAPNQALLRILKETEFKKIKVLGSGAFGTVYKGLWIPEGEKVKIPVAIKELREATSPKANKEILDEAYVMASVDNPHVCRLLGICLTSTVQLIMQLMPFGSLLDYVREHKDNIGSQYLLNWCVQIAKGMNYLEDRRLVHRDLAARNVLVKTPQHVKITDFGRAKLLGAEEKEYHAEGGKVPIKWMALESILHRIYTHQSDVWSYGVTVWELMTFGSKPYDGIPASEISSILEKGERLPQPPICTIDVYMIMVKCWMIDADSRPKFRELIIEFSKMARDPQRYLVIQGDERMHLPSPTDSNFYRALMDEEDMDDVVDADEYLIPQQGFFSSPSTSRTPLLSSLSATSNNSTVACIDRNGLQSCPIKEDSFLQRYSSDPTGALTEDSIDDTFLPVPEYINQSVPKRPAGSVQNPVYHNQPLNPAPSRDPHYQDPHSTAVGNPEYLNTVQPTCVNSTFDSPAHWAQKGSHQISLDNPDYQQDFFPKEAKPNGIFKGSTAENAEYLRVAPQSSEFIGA
EGFR wildtype (WT), sequence (P00533 25-1210): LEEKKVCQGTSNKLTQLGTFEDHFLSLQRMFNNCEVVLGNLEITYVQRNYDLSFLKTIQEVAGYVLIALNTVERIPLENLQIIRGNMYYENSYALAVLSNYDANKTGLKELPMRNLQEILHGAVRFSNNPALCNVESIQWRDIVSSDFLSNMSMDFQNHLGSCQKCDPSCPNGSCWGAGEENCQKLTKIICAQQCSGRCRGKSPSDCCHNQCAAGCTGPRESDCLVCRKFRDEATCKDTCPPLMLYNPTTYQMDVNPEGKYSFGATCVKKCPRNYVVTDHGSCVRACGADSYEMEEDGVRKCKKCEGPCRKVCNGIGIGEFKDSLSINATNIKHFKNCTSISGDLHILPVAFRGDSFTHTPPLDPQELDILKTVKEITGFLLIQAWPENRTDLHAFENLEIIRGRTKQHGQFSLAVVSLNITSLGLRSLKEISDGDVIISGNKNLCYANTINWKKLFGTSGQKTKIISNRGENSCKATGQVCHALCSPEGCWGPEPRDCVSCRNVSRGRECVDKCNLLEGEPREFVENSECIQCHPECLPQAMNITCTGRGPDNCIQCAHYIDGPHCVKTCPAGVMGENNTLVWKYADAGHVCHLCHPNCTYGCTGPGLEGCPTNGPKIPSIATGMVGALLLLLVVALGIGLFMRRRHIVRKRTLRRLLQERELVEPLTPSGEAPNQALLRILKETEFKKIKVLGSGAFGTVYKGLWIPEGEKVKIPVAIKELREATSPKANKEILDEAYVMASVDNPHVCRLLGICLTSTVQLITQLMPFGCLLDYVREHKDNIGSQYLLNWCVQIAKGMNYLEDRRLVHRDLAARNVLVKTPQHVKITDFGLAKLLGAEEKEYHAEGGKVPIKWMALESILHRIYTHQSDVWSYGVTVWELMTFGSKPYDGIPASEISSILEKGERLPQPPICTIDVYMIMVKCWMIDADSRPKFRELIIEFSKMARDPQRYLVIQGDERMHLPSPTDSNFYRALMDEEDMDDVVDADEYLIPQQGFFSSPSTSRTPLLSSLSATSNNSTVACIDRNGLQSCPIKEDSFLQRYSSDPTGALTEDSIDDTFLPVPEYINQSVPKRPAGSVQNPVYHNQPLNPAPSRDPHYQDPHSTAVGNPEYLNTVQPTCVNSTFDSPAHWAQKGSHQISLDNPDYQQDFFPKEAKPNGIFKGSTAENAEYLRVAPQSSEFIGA
EGFR L858R/C797S, sequence (P00533 25-1210 C797S/L858R): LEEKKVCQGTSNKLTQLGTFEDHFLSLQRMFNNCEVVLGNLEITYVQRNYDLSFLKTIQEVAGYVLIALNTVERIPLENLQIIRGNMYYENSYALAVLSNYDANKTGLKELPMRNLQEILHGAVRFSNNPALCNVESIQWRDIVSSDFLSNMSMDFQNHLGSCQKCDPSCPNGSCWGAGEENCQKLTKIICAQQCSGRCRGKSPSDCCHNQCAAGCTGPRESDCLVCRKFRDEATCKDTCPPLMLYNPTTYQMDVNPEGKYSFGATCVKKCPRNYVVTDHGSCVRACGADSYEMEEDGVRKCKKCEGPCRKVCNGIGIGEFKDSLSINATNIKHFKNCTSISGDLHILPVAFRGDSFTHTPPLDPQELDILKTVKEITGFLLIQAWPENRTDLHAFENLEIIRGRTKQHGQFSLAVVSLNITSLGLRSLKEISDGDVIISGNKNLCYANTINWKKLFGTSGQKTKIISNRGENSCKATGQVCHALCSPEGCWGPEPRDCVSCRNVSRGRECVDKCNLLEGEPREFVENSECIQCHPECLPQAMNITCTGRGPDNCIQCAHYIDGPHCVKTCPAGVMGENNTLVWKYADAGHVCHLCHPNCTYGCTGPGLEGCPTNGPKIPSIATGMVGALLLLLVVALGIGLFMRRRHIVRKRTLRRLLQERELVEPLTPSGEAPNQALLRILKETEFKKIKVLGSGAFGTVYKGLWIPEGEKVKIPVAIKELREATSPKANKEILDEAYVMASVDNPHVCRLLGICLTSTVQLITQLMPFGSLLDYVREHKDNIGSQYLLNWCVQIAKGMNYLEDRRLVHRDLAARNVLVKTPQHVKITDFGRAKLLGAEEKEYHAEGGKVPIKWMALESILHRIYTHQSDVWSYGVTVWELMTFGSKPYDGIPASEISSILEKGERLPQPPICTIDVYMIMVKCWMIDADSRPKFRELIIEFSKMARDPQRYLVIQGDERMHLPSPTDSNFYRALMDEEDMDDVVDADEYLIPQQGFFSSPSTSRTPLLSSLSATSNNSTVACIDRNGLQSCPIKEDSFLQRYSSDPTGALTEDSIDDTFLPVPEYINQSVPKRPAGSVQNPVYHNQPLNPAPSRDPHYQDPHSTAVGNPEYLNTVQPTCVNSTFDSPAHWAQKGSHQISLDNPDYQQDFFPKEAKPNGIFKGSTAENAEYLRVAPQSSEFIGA
EGFR del19/T790M/C797S, sequence (P00533 with tags, fused parts or gaps DEL746-750/T790M/C797S): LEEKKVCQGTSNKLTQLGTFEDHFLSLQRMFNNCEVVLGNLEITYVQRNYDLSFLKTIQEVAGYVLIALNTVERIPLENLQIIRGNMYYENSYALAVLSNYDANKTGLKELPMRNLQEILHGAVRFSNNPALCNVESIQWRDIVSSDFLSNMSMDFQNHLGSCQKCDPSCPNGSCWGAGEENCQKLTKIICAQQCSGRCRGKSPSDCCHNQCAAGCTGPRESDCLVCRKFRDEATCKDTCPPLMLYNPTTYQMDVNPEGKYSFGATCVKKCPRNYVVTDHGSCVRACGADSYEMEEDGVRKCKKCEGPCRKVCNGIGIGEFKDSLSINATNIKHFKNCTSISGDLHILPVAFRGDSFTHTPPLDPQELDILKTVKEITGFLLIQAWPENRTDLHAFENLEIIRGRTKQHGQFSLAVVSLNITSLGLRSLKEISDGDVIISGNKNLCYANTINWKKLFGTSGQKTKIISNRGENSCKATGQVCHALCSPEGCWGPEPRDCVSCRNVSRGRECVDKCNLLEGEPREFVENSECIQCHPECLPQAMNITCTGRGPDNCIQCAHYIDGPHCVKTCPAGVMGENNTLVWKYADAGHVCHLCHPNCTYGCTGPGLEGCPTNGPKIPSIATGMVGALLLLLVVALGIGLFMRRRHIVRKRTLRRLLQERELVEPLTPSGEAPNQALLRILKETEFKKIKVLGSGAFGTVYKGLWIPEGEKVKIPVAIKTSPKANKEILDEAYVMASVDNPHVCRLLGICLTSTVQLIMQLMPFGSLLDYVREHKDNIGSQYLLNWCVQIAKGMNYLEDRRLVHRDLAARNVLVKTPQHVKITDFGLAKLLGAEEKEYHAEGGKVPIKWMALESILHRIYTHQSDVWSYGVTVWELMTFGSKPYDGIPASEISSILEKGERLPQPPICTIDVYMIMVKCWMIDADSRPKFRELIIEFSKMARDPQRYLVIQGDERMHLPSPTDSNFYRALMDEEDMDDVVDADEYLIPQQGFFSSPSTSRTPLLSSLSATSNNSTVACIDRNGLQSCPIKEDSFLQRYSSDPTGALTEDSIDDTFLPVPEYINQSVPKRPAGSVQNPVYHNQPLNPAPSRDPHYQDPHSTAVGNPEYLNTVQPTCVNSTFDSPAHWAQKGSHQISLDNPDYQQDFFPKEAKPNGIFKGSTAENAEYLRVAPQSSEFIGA

SMILES	IC50 [1, 6]	IC50 [2]	IC50 [3, 7]	IC50 [4, 8]	IC50 [5, 9]	IC50 [1, 10]	IC50 [3, 11]	IC50 [4, 12]	IC50 [5, 13]
Cn1cc(C#Cc2cc(Nc3ccnc(-c4cnn(S(=O)(=O)C5CC5)c4)n3)ncc2-c2cnn(C(F)F)c2)cn1 [Example 2, 2-(1-(Cyclopropylsulfonyl)-1H-pyrazol-4-yl)-N-(5-(1-(difluoromethyl)-1H-pyrazol-4-yl)-4-((1-methyl-1H-pyrazol-4-yl)ethynyl)pyridin-2-yl)pyrimidin-4-amine]	31.3 nM	371 nM	–	–	–	–	–	–	–
Cn1cc(-c2cnc(Nc3ccnc(-c4cnn(S(=O)(=O)C5CC5)c4)n3)cc2C#CC(C)(C)O)cn1 [Example 4, 4-(2-((2-(1-(Cyclopropylsulfonyl)-1H-pyrazol-4-yl)pyrimidin-4-yl)amino)-5-(1-methyl-1H-pyrazol-4-yl)pyridin-4-yl)-2-methylbut-3-yn-2-ol]	3.2 nM	–	0.8 nM	75.9 nM	214 nM	–	–	–	–
Cn1ccc(-c2cnc(Nc3ccnc(-c4cnn(S(=O)(=O)C5CC5)c4)n3)cc2N[C@H]2CC[C@@H](C(C)(C)O)CC2)n1 [Example 42, 2-((1s,4s)-4-((2-((2-(1-(Cyclopropylsulfonyl)-1H-pyrazol-4-yl)pyrimidin-4-yl)amino)-5-(1-methyl-1H-pyrazol-3-yl)pyridin-4-yl)amino)cyclohexyl)propan-2-ol]	0.9 nM	–	0.6 nM	1 nM	–	1.4 nM	1.9 nM	11.3 nM	7830 nM
C[C@]1(O)CC[C@@H](Nc2cc(Nc3ccnc(-c4cnn(S(=O)(=O)C5CC5)c4)n3)ncc2-c2csc(C(F)(F)F)n2)CC1 [Example 51, (1s,4s)-4-((2-((2-(1-(Cyclopropylsulfonyl)-1H-pyrazol-4-yl)pyrimidin-4-yl)amino)-5-(2-(trifluoromethyl)thiazol-4-yl)pyridin-4-yl)amino)-1-methylcyclohexan-1-ol]	–	–	–	–	–	2.4 nM	–	7 nM	> 10000 nM
CC1(O)CCC(Oc2cc(Nc3ccnc(-c4cnn(S(=O)(=O)C5CC5)c4)n3)ncc2-c2cnn(C(F)F)c2)CC1 (stereo not shown) [Example 73, 4-((2-((2-(1-(Cyclopropylsulfonyl)-1H-pyrazol-4-yl)pyrimidin-4-yl)amino)-5-(1-(difluoromethyl)-1H-pyrazol-4-yl)pyridin-4-yl)oxy)-1-methylcyclohexan-1-ol]	0.5 nM	–	0.2 nM	2.9 nM	65.3 nM	0.4 nM	1.1 nM	41.3 nM	> 10000 nM
CC(C)n1ccc(-c2cnc(Nc3ccnc(-c4cnn(S(=O)(=O)C5CC5)c4)n3)cc2N[C@H]2CC[C@@](C)(O)CC2)n1 [Example 84, (1s,4s)-4-((2-((2-(1-(Cyclopropylsulfonyl)-1H-pyrazol-4-yl)pyrimidin-4-yl)amino)-5-(1-isopropyl-1H-pyrazol-3-yl)pyridin-4-yl)amino)-1-methylcyclohexan-1-ol]	–	–	–	–	–	0.6 nM	1 nM	6.7 nM	> 10000 nM
CC1(O)CCC(Nc2cc(Nc3ccnc(-c4cnn(S(=O)(=O)C5CCOC5)c4)n3)ncc2-c2ccn(C(F)F)n2)CC1 (stereo not shown) [Example 114, (1s,4s)-4-((5-(1-(Difluoromethyl)-1H-pyrazol-3-yl)-2-((2-(1-((tetrahydrofuran-3-yl)sulfonyl)-1H-pyrazol-4-yl)pyrimidin-4-yl)amino)pyridin-4-yl)amino)-1-methylcyclohexan-1-ol]	0.6 nM	–	0.2 nM	1 nM	4.2 nM	–	–	–	–
C[C@]1(O)CC[C@@H](Nc2cc(Nc3ccnc(-c4cnn(S(=O)(=O)C5CCCC5)c4)n3)ncc2-c2ccn(C(F)F)n2)CC1 [Example 115, (1s,4s)-4-((2-((2-(1-(Cyclopentylsulfonyl)-1H-pyrazol-4-yl)pyrimidin-4-yl)amino)-5-(1-(difluoromethyl)-1H-pyrazol-3-yl)pyridin-4-yl)amino)-1-methylcyclohexan-1-ol]	1.9 nM	–	1.3 nM	–	20.2 nM	–	–	–	–
CN1CCN(c2nc(-c3cnc(Nc4ccnc(-c5cnn(S(=O)(=O)C6CC6)c5)n4)cc3N[C@H]3CC[C@@](C)(O)CC3)cs2)CC1 [Example 121, (1s,4s)-4-((2-((2-(1-(Cyclopropylsulfonyl)-1H-pyrazol-4-yl)pyrimidin-4-yl)amino)-5-(2-(4-methylpiperazin-1-yl)thiazol-4-yl)pyridin-4-yl)amino)-1-methylcyclohexan-1-ol]	1.2 nM	–	0.4 nM	2.4 nM	12.8 nM	1.7 nM	1.4 nM	19.8 nM	8920 nM
C[C@]1(O)CC[C@@H](Nc2cc(Nc3ccnc(-c4cnn(S(=O)(=O)C5CC5)c4)n3)ncc2-c2nc(C(F)F)cs2)CC1 [Example 122, (1s,4s)-4-((2-((2-(1-(Cyclopropylsulfonyl)-1H-pyrazol-4-yl)pyrimidin-4-yl)amino)-5-(4-(difluoromethyl)thiazol-2-yl)pyridin-4-yl)amino)-1-methylcyclohexan-1-ol]	–	–	0.3 nM	–	9 nM	0.6 nM	0.4 nM	8.5 nM	1420 nM

Continued, values first:

IC50 [1, 6]	IC50 [2]	IC50 [3, 7]	IC50 [4, 8]	IC50 [5, 9]	IC50 [1, 10]	IC50 [3, 11]	IC50 [4, 12]	IC50 [5, 13]	SMILES
0.3 nM	–	0.1 nM	9.3 nM	3.4 nM	–	–	–	–	C[C@]1(O)CC[C@@H](Nc2cc(Nc3ccnc(-c4cnn(S(=O)(=O)C5CC5)c4)n3)ncc2-n2ccc(C(F)F)n2)CC1 [Example 172, (1s,4s)-4-((2-((2-(1-(Cyclopropylsulfonyl)-1H-pyrazol-4-yl)pyrimidin-4-yl)amino)-5-(3-(difluoromethyl)-1H-pyrazol-1-yl)pyridin-4-yl)amino)-1-methylcyclohexan-1-ol]
0.8 nM	–	0.3 nM	10.5 nM	15.3 nM	0.7 nM	1 nM	200 nM	5120 nM	CN(C)CC1(C)CCC(Nc2cc(Nc3ccnc(-c4cnn(S(=O)(=O)C5CC5)c4)n3)ncc2-c2ccn(C(F)F)n2)CC1 (stereo not shown) [Example 207, N^2-(2-(1-(Cyclopropylsulfonyl)-1H-pyrazol-4-yl)pyrimidin-4-yl)-5-(1-(difluoromethyl)-1H-pyrazol-3-yl)-N^4-(4-((dimethylamino)methyl)-4-methylcyclohexyl)pyridine-2,4-diamine]
2.5 nM	–	1.4 nM	–	9 nM	5.1 nM	2.8 nM	26.7 nM	2070 nM	CN(C)C(=O)C[C@H]1CC[C@@H](Nc2cc(Nc3ccnc(-c4cnn(S(=O)(=O)C5CC5)c4)n3)ncc2-c2cc(C(F)(F)F)n(C)n2)CC1 [Example 258, 2-((1s,4s)-4-((2-((2-(1-(Cyclopropylsulfonyl)-1H-pyrazol-4-yl)pyrimidin-4-yl)amino)-5-(1-methyl-5-(trifluoromethyl)-1H-pyrazol-3-yl)pyridin-4-yl)amino)cyclohexyl)-N,N-dimethylacetamide]
0.6 nM	–	0.3 nM	0.6 nM	4.8 nM	0.6 nM	0.5 nM	2.9 nM	2000 nM	CC(C)(O)[C@H]1CC[C@@H](Nc2cc(Nc3ccnc(-c4cnn(S(=O)(=O)C5CC5)c4)n3)ncc2-c2ccn(C3COC3)n2)CC1 [Example 283, 2-((1s,4s)-4-((2-((2-(1-(Cyclopropylsulfonyl)-1H-pyrazol-4-yl)pyrimidin-4-yl)amino)-5-(1-(oxetan-3-yl)-1H-pyrazol-3-yl)pyridin-4-yl)amino)cyclohexyl)propan-2-ol]
0.7 nM	–	0.6 nM	0.3 nM	3.8 nM	–	–	–	–	C[C@]1(O)CC[C@@H](Nc2cc(Nc3ccnc(-c4cnn(S(=O)(=O)C5CC5)c4)n3)ncc2-c2ccn(CCC(F)(F)F)n2)CC1 [Example 295, (1s,4s)-4-((2-((2-(1-(Cyclopropylsulfonyl)-1H-pyrazol-4-yl)pyrimidin-4-yl)amino)-5-(1-(3,3,3-trifluoropropyl)-1H-pyrazol-3-yl)pyridin-4-yl)amino)-1-methylcyclohexan-1-ol]
–	7.5 nM	–	–	20.9 nM	–	–	–	–	Cn1nc(-c2cnc(Nc3ccnc(-c4cnn(S(=O)(=O)C5CC5)c4)n3)cc2N[C@H]2CC[C@@](C)(O)CC2)cc1N1CCC(F)(F)CC1 [Example 307, (1s,4s)-4-((2-((2-(1-(Cyclopropylsulfonyl)-1H-pyrazol-4-yl)pyrimidin-4-yl)amino)-5-(5-(4,4-difluoropiperidin-1-yl)-1-methyl-1H-pyrazol-3-yl)pyridin-4-yl)amino)-1-methylcyclohexan-1-ol]

— patent publication US12258327B2, “5-membered heteroaryl-containing aminopyridine compounds as EGFR inhibitors” (YUHAN CORPORATION, priority 2021, dated 2025)
